Source: patent publication US11530244B2, “Cyclic polypeptides for PCSK9 inhibition” (priority 2018, dated 2022)
Starred links: 1 amine or outer side, 2 acyl side, 3 side chain; linkers in the order of their positions; H or OH if unused. Positions of bridges follow the written chain, without caps; N, C: chain ends. Non-standard residues stand in square brackets, D forms with d. Residues, ends and D or L forms follow the SMILES beside them. Groups on a side chain read outwards from the residue. *: point of attachment. X50 = C[C@@H](N[*:1])C(=O)C[C@@H](Cc1c[nH]c2ccc(F)cc12)C(=O)[*:2]; Phe(3-CH2NH2) = O=C([C@H](Cc1cccc(CN[*:3])c1)N[*:1])[*:2]; PEG12 = NCCOCCOCCOCCOCCOCCOCCOCCOCCOCCOCCOCCOCCC(=O)O; Trp(5-F) = N[C@@H](Cc1c[nH]c2ccc(F)cc12)C(=O)O; Phe(4-CH2NH2) = NCc1ccc(C[C@H](N)C(=O)O)cc1; Heptanedioyl = O=C(CCCCCC(=O)[*:2])[*:1]; Pro(cis-4-F) = O=C(O)[C@@H]1C[C@H](F)CN1; X4 = O=C(CCSCc1cccc(CSCCN[*:1])c1)[*:2]; γGlu = O=C(O)[C@H](CCC(=O)[*:2])N[*:1]; Propanoyl(3,3,3-F3) = O=C(CC(F)(F)F)*; mXylylene = c1cc(C[*:1])cc(C[*:2])c1; AEF = NCCOc1ccc(C[C@H](N)C(=O)O)cc1; Palmitoyl = CCCCCCCCCCCCCCCC(=O)*; aThr = C[C@H](O)[C@H](N)C(=O)O; αMeP = C[C@@]1(C(=O)O)CCCN1; X51 = COCCOCCOCCOCCC(=O)*; AEEA = NCCOCCOCC(=O)O; Propionyl = CCC(=O)*; Mpa = O=C(O)CCS

Experiments:
PCSK9 [1] = target: T1, PCSK9 (Homo sapiens (Human), UniProt Q8NBP7); experiment: PCSK9 Alexa FRET Plus assay (displacement of AlexaFluor647 tagged cyclic peptide Reagent B); type: binding; settings: 0.5 nM PCSK9, 960 nM AF cyclic peptide Reagent B
T1 sequence (Q8NBP7 153-692): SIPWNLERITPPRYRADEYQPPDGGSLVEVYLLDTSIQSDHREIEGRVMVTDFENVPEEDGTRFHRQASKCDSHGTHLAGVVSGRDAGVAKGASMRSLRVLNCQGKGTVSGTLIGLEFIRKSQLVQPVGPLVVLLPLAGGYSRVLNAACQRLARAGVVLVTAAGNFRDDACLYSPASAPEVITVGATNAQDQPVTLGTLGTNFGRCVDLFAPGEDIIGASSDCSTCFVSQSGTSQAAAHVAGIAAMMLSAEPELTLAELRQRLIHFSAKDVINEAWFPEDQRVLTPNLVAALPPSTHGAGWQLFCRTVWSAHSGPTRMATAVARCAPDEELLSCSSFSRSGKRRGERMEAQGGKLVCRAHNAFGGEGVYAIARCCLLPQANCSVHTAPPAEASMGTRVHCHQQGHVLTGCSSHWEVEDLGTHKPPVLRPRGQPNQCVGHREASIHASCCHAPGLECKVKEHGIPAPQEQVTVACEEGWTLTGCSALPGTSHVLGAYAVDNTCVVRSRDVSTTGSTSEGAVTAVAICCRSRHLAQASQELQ
Procedure: A solution containing 1 nM biotinylated PCSK9+2.5 nM Lance Streptavidin Europium (Strep-Eu) was made in 50 mM HEPES pH 7.4, 0.15 M NaCl, 5 mM CaCl2), 0.01% BSA, and 0.01% Surfactant P20. A separate solution containing 1920 nM of the AlexaFluor tagged cyclic peptide was made in the same buffer system. An Echo was used to transfer 0.075 ul of compound plus 0.675 ul of DMSO to each well of an assay plate followed by the addition of 15 ul of PCSK9+Stept-Eu and 15 ul of AF peptide. The final assay volume was 30.750 ul containing 0.5 nM PCSK9, 1.25 nM Strep-Eu, and 960 nM AF cyclic peptide. The reaction was incubated at room temperature for at least two hours prior to fluorescence measurements using an Envision Multilabel Reader. IC50 values were determined by fitting data to a sigmoidal dose-response curve using nonlinear regression. Ki was then calculated from the IC50 and the KD of AF cyclic peptide. Counts (B-counts) of the europium-labeled PCSK9 were followed to observe if compounds were adversely affecting PCSK9. A fall off of the B-counts likely indicated a false positive of inhibition. Data from this procedure was reported as “P=‘numerical value’ (nanomolar)”

PCSK9 [2] = target: T1, PCSK9; experiment: PCSK9 Alexa FRET Standard assay (displacement of AlexaFluor647 tagged cyclic peptide Reagent A); type: binding; settings: 0.5 nM PCSK9, 20 nM AF cyclic peptide Reagent A
Outline: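 TR-FRET displacement: 0.5 nM biotinylated PCSK9 with 1.25 nM Strep-Eu and 20 nM AlexaFluor-tagged cyclic peptide (final) in 50 mM HEPES pH 7.4, 0.15 M NaCl, 5 mM CaCl2, 0.01% BSA, 0.01% P20, ≥2 h at room temperature. IC50 from sigmoidal fit, converted to Ki via peptide KD; falling Eu counts flagged false positives.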

[3] = Alexa FRET Plus, read-out: IC50
[4] = PCSK9 Alexa FRET Standard assay, read-out: IC50

Row | SMILES | IC50 (PCSK9 [1]; [3]) [nM] | IC50 (PCSK9 [2]; [4]) [nM] | IC50 (PCSK9 [1]; IC50, Alexa FRET Plus) [nM] | IC50 (PCSK9 [2]; IC50, PCSK9 Alexa FRET Standard assay) [nM]
1 | CCCc1cccc(C[C@@H]2NC(=O)[C@@H](C)NC(=O)[C@H](C)NC(=O)CCSCc3cccc(c3)CSCCNC(=O)[C@]3(C)CCCN3C(=O)[C@H](Cc3ccc(OC)cc3)NC[C@H]([C@@H](C)OC)NC(=O)[C@@H]3[C@@H](O)CCN3C(=O)[C@H](Cc3c[nH]c4ccc(F)cc34)NC2=O)c1 [Compound 459] | 500 to 5000 | 21000 to 50000 | – | –
2 | COc1ccc(C[C@@H]2NC(=O)[C@H]([C@H](C)O)NC(=O)[C@@H]3CCCc4cn(nn4)CC[C@H](NC(=O)[C@@H](C)NC(=O)[C@H](C)NC(=O)CCSCc4cccc(c4)CSCCNC(=O)[C@]4(C)CCCN4C2=O)C(=O)N[C@@H](Cc2c[nH]c4ccc(F)cc24)C(=O)N3)cc1 [Compound 525] | 500 to 5000 | 100 to 1000 | – | –
3 | CCCCCCCCCCCCCCCC(=O)N[C@@H](CCC(=O)NCCOCCOCC(=O)NCCOCCOCC(=O)NCc1cccc(C[C@@H]2NC(=O)[C@@H](C)NC(=O)[C@H](CCCCN)NC(=O)CCSCc3cccc(c3)CSC[C@@H](C(N)=O)NC(=O)[C@]3(C)CCCN3C(=O)[C@H](Cc3ccc(O)cc3)NC(=O)[C@H](Cc3cnc[nH]3)NC(=O)[C@H](CC(=O)O)NC(=O)[C@H](Cc3c[nH]c4ccc(F)cc34)NC2=O)c1)C(=O)O [Compound 454] ([Mpa]K[dA][Phe(3-CH2NH2)]([AEEA-AEEA-γGlu-Palmitoyl])[Trp(5-F)]DHY[αMeP]C-NH2; linker 1-10 via mXylylene) | 100 to 500 | 0.11 to 100 | – | –
4 | COc1ccc(C[C@@H]2NC(=O)[C@H]([C@@H](C)O)NC(=O)[C@@H]3C[C@H](F)CN3C(=O)[C@H](Cc3c[nH]c4ccc(F)cc34)NC(=O)[C@H](Cc3c[nH]c4ccc(F)cc34)NC(=O)[C@@H](C)NC(=O)CNC(=O)[C@@H](NC(C)=O)CCNCc3ccc(cc3)C[C@@H](C(N)=O)NC(=O)[C@]3(C)CCCN3C2=O)cc1 [Compound 102] | – | 0.11 to 100 | 500 to 5000 | –
5 | C[C@@]12CCCN1C(=O)[C@H](Cc1ccc(O)cc1)NC(=O)CN1C(=O)[C@@H](N=C(c3ccccc3)c3ccccc31)NC(=O)[C@H](Cc1c[nH]c3ccc(F)cc13)NC(=O)[C@H](Cc1c[nH]c3ccc(F)cc13)NC(=O)CNC(=O)[C@H](CCCCN)NC(=O)CCSCc1cccc(c1)CSC[C@@H](C(N)=O)NC2=O [Compound 122] | – | – | 0.1 to 100 | 0.11 to 100
6 | CCCCCCCCCCCCCCCC(=O)N[C@@H](CCC(=O)NCCOCCOCC(=O)NCCOCCOCC(=O)NCCCC[C@H](NC(C)=O)C(=O)NCCOCCOCCOCCOCCOCCOCCOCCOCCOCCOCCOCCOCCC(=O)N[C@@H]1CSCc2cccc(c2)CSC[C@@H](C(N)=O)NC(=O)[C@]2(C)CCCN2C(=O)[C@H](Cc2ccc(O)cc2)NC(=O)[C@H]([C@@H](C)O)NC(=O)N2C[C@@H](F)C[C@H]2C(=O)[C@H](Cc2c[nH]c3ccc(F)cc23)NC(=O)[C@H](Cc2c[nH]c3ccc(F)cc23)NC(=O)[C@@H](C)NC(=O)[C@H](C)NC1=O)C(=O)O [Compound 136] | 0.1 to 100 | 0.11 to 100 | – | –
7 | COc1ccc(C[C@@H]2NC(=O)[C@H]([C@H](C)O)NC(=O)[C@H]3CCCN3C(=O)[C@H](Cc3c[nH]c4ccc(F)cc34)NC(=O)[C@H](Cc3c[nH]c4ccc(F)cc34)NC(=O)[C@@H](C)NC(=O)[C@H](CCCCN)NC(=O)CCSCc3cccc(c3)CSCCNC(=O)[C@]3(C)CCCN3C2=O)cc1 [Compound 103] (cyclo(K[dA][Trp(5-F)][Trp(5-F)][dP][aThr]Y(Me)[αMeP][X4])) | 500 to 5000 | 0.11 to 100 | – | –
8 | CCCCCCCCCCCCCCCC(=O)N[C@@H](CCC(=O)NCCOCCOCC(=O)NCCOCCOCC(=O)NCCCC[C@@H]1NC(=O)[C@H](Cc2c[nH]c3ccc(F)cc23)NC(=O)[C@H](Cc2c[nH]c3ccc(F)cc23)CC(=O)[C@@H](C)NC(=O)[C@H](CCCCN)NC(=O)CCSCc2cccc(c2)CSC[C@@H](C(N)=O)NC(=O)[C@]2(C)CCCN2C(=O)[C@H](Cc2ccc(O)cc2)NC(=O)[C@H]([C@@H](C)O)NC1=O)C(=O)O [Compound 101] ([Mpa]K[X50][Trp(5-F)]K([AEEA-AEEA-γGlu-Palmitoyl])TY[αMeP]C-NH2; linker 1-9 via mXylylene) | 100 to 500 | 0.11 to 100 | – | –
9 | COCCOCCOCCOCCC(=O)NCCCC[C@@H]1NC(=O)CCSCc2cccc(c2)CSC[C@@H](C(N)=O)NC(=O)[C@]2(C)CCCN2C(=O)[C@H](Cc2ccc(O)cc2)NC(=O)[C@H](Cc2cnc[nH]2)NC(=O)[C@H](CC(=O)O)NC(=O)[C@H](Cc2c[nH]c3ccc(F)cc23)NC(=O)[C@H](Cc2c[nH]c3ccc(F)cc23)NC(=O)CNC1=O [Compound 484] ([Mpa]K(X51)G[Trp(5-F)][Trp(5-F)]DHY[αMeP]C-NH2; linker 1-10 via mXylylene) | 0.1 to 100 | 0.11 to 100 | – | –
10 | C[C@@]12CCCN1C(=O)[C@H](Cc1ccc(O)cc1)NC(=O)CN1C(=O)[C@@H](N=C(C3CCCCC3)c3ccccc31)NC(=O)[C@H](Cc1c[nH]c3ccc(F)cc13)NC(=O)[C@H](Cc1c[nH]c3ccc(F)cc13)NC(=O)CNC(=O)[C@H](CCCCN)NC(=O)CCSCc1cccc(c1)CSC[C@@H](C(N)=O)NC2=O [Compound 129] | 500 to 5000 | 0.11 to 100 | – | –
11 | CCC(=O)N[C@H]1CC(=O)NCCOc2ccc(cc2)C[C@@H](C(N)=O)NC(=O)[C@]2(C)CCCN2C(=O)[C@H](Cc2ccc(OC)cc2)NC(=O)[C@H]([C@@H](C)O)NC(=O)[C@@H]2C[C@H](F)CN2C(=O)[C@H](Cc2c[nH]c3ccc(F)cc23)NC(=O)[C@H](Cc2c[nH]c3ccc(F)cc23)NC(=O)[C@@H](C)NC(=O)[C@H](CCCCN)NC1=O [Compound 118] (Propionyl-DK[dA][Trp(5-F)][Trp(5-F)][Pro(cis-4-F)]TY(Me)[αMeP][AEF]-NH2; lactam 1-10) | 500 to 5000 | 21000 to 50000 | – | –
12 | COc1ccc(C[C@@H]2NC(=O)[C@H]([C@@H](C)O)NC(=O)[C@@H]3CC[C@H](F)N3C(=O)[C@H](Cc3c[nH]c4ccc(F)cc34)NC(=O)[C@H](Cc3c[nH]c4ccc(F)cc34)NC(=O)[C@@H](C)NC(=O)c3ccc(cc3)-c3ccc(cc3)CNCc3ccc(cc3)C[C@@H](C(N)=O)NC(=O)[C@]3(C)CCCN3C2=O)cc1 [Compound 093] | 500 to 5000 | 1000 to 12100 | – | –
13 | NC(=O)[C@@H]1Cc2ccc(cc2)CNC(=O)CCCCCC(=O)NCC(=O)N[C@@H](Cc2c[nH]c3ccc(F)cc23)C(=O)N[C@@H](Cc2c[nH]c3ccc(F)cc23)C(=O)N[C@@H](CC(=O)O)C(=O)N[C@@H](Cc2cnc[nH]2)C(=O)N[C@@H](Cc2ccc(O)cc2)C(=O)N1 [Compound 455] (G[Trp(5-F)][Trp(5-F)]DHY[Phe(4-CH2NH2)]-NH2; linker N-7 via Heptanedioyl) | 500 to 5000 | 1000 to 12100 | – | –
14 | COc1ccc(C[C@@H]2NC(=O)[C@H]([C@@H](C)O)NC(=O)[C@@H]3C[C@H](F)CN3C(=O)[C@H](Cc3c[nH]c4ccc(F)cc34)NC(=O)[C@H](Cc3c[nH]c4ccc(F)cc34)NC(=O)[C@@H](C)NC(=O)[C@H](CCCCN)NC(=O)[C@@H](NC(=O)CC(F)(F)F)CC(=O)NCCOc3ccc(cc3)C[C@@H](C(N)=O)NC(=O)[C@]3(C)CCCN3C2=O)cc1 [Compound 114] ({Propanoyl(3,3,3-F3)}-DK[dA][Trp(5-F)][Trp(5-F)][Pro(cis-4-F)]TY(Me)[αMeP][AEF]-NH2; lactam 1-10) | 500 to 5000 | 21000 to 50000 | – | –
15 | C[C@@]12CCCN1C(=O)[C@H](Cc1ccc(O)cc1)NC(=O)N[C@@H]1CCCc3ccc(cc31)C(=O)[C@H](Cc1c[nH]c3ccc(F)cc13)NC(=O)[C@H](Cc1c[nH]c3ccc(F)cc13)NC(=O)CNC(=O)[C@H](CCCCN)NC(=O)CCSCc1cccc(c1)CSC[C@@H](C(N)=O)NC2=O [Compound 140] | 100 to 500 | 0.11 to 100 | – | –
16 | CCCCCCCCCCCCCCCC(=O)N[C@@H](CCC(=O)NCCOCCOCCOCCOCCOCCOCCOCCOCCOCCOCCOCCOCCC(=O)NCc1cccc(C[C@@H]2NC(=O)[C@@H](C)NC(=O)[C@H](CCCCN)NC(=O)CCSCc3cccc(c3)CSC[C@@H](C(N)=O)NC(=O)[C@]3(C)CCCN3C(=O)[C@H](Cc3ccc(O)cc3)NC(=O)[C@H](Cc3cnc[nH]3)NC(=O)[C@H](CC(=O)O)NC(=O)[C@H](Cc3c[nH]c4ccc(F)cc34)NC2=O)c1)C(=O)O [Compound 478] ([Mpa]K[dA][Phe(3-CH2NH2)]([PEG12-γGlu-Palmitoyl])[Trp(5-F)]DHY[αMeP]C-NH2; linker 1-10 via mXylylene) | 500 to 5000 | 21000 to 50000 | – | –
